{"source": "patent US20240217969A1", "about": "“SUBSTITUTED PYRROLE CARBOXAMIDES, PROCESS FOR THEIR PREPARATION AND THEIR USE AS KINASE INHIBITORS” (priority 2021, published 2024)", "key": {"[1]": {"target": "Cdc7 (Homo sapiens, UniProt O00311)", "sequence (O00311 whole entry)": "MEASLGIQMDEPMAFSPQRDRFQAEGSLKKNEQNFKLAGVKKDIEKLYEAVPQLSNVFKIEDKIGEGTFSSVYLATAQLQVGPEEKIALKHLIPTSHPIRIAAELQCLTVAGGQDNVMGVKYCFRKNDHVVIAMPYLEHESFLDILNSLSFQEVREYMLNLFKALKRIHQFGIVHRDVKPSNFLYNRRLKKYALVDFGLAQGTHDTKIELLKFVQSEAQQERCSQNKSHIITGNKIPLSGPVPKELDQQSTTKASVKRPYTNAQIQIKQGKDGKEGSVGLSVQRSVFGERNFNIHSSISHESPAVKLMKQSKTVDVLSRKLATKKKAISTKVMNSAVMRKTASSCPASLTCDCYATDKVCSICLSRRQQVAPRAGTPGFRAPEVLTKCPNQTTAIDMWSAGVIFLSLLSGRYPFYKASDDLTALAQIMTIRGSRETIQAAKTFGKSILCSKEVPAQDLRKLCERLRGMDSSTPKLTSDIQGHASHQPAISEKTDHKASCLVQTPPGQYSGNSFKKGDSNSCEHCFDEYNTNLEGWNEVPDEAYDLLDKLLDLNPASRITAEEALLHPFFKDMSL", "sequence (Q9UBU7 whole entry partner)": "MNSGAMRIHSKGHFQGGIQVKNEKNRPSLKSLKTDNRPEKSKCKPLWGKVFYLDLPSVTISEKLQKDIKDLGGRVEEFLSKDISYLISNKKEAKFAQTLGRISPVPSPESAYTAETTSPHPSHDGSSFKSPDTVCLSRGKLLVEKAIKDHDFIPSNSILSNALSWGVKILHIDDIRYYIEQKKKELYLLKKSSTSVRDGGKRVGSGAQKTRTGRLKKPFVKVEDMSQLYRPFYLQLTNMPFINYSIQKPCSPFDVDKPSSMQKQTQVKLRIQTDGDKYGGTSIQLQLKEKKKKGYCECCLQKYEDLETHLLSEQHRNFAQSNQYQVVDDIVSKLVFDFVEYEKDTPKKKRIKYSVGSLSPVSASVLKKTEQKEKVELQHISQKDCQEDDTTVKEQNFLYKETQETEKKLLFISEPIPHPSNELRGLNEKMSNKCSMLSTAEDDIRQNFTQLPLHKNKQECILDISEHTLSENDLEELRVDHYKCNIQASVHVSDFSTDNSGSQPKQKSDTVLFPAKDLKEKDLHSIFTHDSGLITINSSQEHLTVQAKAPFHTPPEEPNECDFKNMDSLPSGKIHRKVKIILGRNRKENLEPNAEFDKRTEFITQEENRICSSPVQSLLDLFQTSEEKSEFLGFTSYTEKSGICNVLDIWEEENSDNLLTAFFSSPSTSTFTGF", "experiment": "Cdc7 biochemical assay, ADPGlo assay format", "experimental": "The biochemical activity of compounds was determined by incubation with specific enzymes and substrate, followed by quantification of the ADP product. Compounds were 4-fold serially diluted from 10 to 0.0006 uM; in the case of the pre-incubation step, the enzyme is added to the inhibitor solution and the mixture is left to incubate for 30 minutes at room temperature (r.t.). The reaction started with the addition of the substrate and the ATP, when the enzyme was already present in the preincubation step, or substrate, ATP and enzyme when the preincubation step was not present. The concentrations of ATP, substrate and reaction buffer are described above. The assays were run in a robotized format on 384-well plates. […] At the end of the incubation time, an equal volume of ADPGlo Reagent 1 (Promega) was added to stop the reaction and to remove all unreacted ATP. After 60 minutes, an equal volume of ADPGlo Reagent 2 (Promega) was added to convert ADP in ATP and then ATP in light by luciferase reaction.\ny=bottom+(top−bottom)/(1+10^((log IC50−x)*slope))\nwhere x is the logarithm of the inhibitor concentration, y is the response; y starts at bottom and goes to top with a sigmoid shape."}, "[2]": {"target": "T1, aldehyde oxidases (human liver cytosol) (Homo sapiens, UniProt Q06278)", "T1 construct": "added to human liver cytosol (1 mg/mL protein content); from tissue; host or cells: human liver cytosol", "T1 sequence (Q06278 whole entry)": "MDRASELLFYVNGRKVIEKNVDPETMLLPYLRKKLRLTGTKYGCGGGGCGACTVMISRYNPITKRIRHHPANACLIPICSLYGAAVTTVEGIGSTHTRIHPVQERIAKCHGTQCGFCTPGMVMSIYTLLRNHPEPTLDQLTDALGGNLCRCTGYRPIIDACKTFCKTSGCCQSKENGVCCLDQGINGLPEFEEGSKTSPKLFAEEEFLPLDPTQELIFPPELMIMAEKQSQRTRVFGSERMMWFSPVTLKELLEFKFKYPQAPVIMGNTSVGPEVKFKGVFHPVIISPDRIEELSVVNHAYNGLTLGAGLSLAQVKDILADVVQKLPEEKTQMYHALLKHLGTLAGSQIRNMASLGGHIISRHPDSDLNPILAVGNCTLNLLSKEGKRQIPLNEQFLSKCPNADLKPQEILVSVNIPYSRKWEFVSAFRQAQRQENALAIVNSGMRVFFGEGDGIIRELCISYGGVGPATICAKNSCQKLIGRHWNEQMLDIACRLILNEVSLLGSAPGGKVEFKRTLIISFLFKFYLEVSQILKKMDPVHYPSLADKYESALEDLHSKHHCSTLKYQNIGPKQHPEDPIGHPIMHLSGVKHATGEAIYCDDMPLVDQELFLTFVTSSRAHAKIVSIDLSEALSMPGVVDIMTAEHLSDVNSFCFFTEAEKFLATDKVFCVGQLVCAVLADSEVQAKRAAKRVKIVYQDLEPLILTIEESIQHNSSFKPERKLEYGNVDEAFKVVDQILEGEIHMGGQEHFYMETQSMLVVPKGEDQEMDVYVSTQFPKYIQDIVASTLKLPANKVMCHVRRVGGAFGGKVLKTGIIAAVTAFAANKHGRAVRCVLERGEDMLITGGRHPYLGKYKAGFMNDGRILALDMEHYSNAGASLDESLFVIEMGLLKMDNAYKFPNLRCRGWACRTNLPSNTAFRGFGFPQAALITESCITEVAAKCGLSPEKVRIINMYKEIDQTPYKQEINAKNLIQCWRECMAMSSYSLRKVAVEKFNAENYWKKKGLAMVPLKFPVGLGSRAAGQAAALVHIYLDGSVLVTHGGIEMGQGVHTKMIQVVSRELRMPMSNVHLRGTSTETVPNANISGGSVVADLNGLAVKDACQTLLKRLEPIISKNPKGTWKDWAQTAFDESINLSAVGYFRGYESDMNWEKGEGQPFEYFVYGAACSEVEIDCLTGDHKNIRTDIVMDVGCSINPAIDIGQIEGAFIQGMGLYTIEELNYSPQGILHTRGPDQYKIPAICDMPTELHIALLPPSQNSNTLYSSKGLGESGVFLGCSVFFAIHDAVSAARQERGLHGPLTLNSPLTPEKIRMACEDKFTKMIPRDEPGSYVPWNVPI", "assay_type": "in vitro ADME", "settings": "human liver cytosol 1 mg/mL, 1 μM compound; for HLC % remaining (1 h incub.): 60 min incubation; for HLC % remaining (1 h incub.) / HLC T½ min: pH 7.4, 37° C.; for IntCl (Intrinsic Clearance): half-life approach", "experimental": "The aldehyde oxidases involvement in the metabolism of the test item was determined by comparison of the intrinsic clearance values in the presence and absence of aldehyde oxidases inhibitor hydralazine hydrochloride. The purpose of the study was to evaluate the in-vitro intrinsic clearance, the metabolic stability towards aldehyde oxidases (AO) activity and the metabolism of the test item in human liver cytosol. The intrinsic clearance was determined using the half-life approach, by measuring the substrate disappearance along 60 minutes incubation with human liver cytosol. Incubations were performed at the concentration of 1 μM. […] HPLC-MS/MS was used for the detection of the compound left over during the incubation. For intrinsic clearance determination samples were analyzed by high performance liquid chromatography (HPLC) on-line with mass spectrometry (MS) equipment. For the determination of aldehyde oxidases activity (i.e. positive control) of cytosol, phthalazine was incubated with human liver cytosol in presence and absence of the aldehyde oxidases inhibitor. On the day of the incubation, the compound was dissolved in DMSO at the concentration of 10 mM. Aliquots of this solution were added to the test system to a final concentration of […]. The percentage of DMSO in the final incubates was […]. Aliquots of the test item were added to human liver cytosol (1 mg/mL protein content) in Dulbecco's buffer, pH 7.4 at 37° C., to reach final concentration of 1 μM. Incubations were performed in a 48-well plate, under shaking. At 0, 5, 10, 20, 30 and 60 minutes incubation, 50 μL aliquots of the incubate were sampled, poured in 80 μL of ice-cold acetonitrile and 20 μL of 1 μM warfarin in acetonitrile (injection control) and centrifuged at 2500 rpm for 20 minutes. The supernatant was immediately analysed by LC-MS/MS.\nThe test item was incubated in parallel, in duplicate, at the concentration of 1 μM in Dulbecco's buffer, pH 7.4 for 60 min at 37° C. in the presence of 10 μM hydralazine hydrochloride (aldehyde oxidases inhibitor).\nThe chemical stability of the test item was checked in parallel by incubating the test item in single at the concentration of 1 μM in Dulbecco's buffer, pH 7.4 for 60 min at 37° C. (negative control).\nThe intrinsic clearance (CLint) was calculated using the half-life approach. Half-life and CLint were determined from the concentration (area counts) remaining at the different sampling points using the LC-MS/MS method. By plotting the natural logarithmic area of the compound remaining against the time, the slope was calculated by linear regression analysis and converted into the half-life (t½) and CLint expressed as μL/min/mg protein according to the following formulae: […]"}}}
{"smiles": "NC(=O)c1cc(-c2ccnc3[nH]ccc23)[nH]c1-c1ccc(Cl)cc1Cl", "note": "[compound 46, 2-(2,4-dichlorophenyl)-5-(1H-pyrrolo[2,3-b]pyridin-4-yl)-1H-pyrrole-3-carboxamide]", "values": [{"measurement": "IC50", "setting": "[1]", "value": 0.001, "unit": "µM"}, {"measurement": "HLC % remaining (1 h incub.)", "setting": "[2]", "value": 100, "unit": "%"}, {"measurement": "IntCl (Intrinsic Clearance)", "setting": "[2]", "value": 2.9, "unit": "μL/min/mg protein"}, {"measurement": "HLC T½ min", "setting": "[2]", "value": 3.98, "unit": "h"}]}
{"smiles": "NC(=O)c1cc(-c2c[nH]nc2C(F)(F)F)[nH]c1-c1ccc(Cl)cc1Cl", "note": "[compound 48, 2-(2,4-dichlorophenyl)-5-[3-(trifluoromethyl)-1H-pyrazol-4-yl]-1H-pyrrole-3-carboxamide]", "values": [{"measurement": "IC50", "setting": "[1]", "value": 0.188, "unit": "µM"}, {"measurement": "HLC % remaining (1 h incub.)", "setting": "[2]", "value": 100, "unit": "%"}, {"measurement": "IntCl (Intrinsic Clearance)", "setting": "[2]", "value": 2.9, "unit": "μL/min/mg protein"}, {"measurement": "HLC T½ min", "setting": "[2]", "value": 3.98, "unit": "h"}]}
{"smiles": "Cc1ccc(-c2[nH]c(-c3cn[nH]c3)cc2C(N)=O)c(F)c1", "note": "[compound 49, 2-(2-fluoro-4-methylphenyl)-5-(1H-pyrazol-4-yl)-1H-pyrrole-3-carboxamide]", "values": [{"measurement": "IC50", "setting": "[1]", "value": 0.018, "unit": "µM"}, {"measurement": "HLC % remaining (1 h incub.)", "setting": "[2]", "value": 100, "unit": "%"}, {"measurement": "IntCl (Intrinsic Clearance)", "setting": "[2]", "value": 2.9, "unit": "μL/min/mg protein"}, {"measurement": "HLC T½ min", "setting": "[2]", "value": 3.98, "unit": "h"}]}
